Data from patent US20180280528A1, “ANTIFOLATE CONJUGATES FOR TREATING INFLAMMATION” (ENDOCYTE, INC., priority 2015, published 2018).

How the values were obtained:
[1] = Incubation with rat TG macrophage cell lysates; type: in vitro ADME; settings: rat TG macrophage lysate, pH 4.5, 37° C., 1 hour
Method: Female Lewis rats approximately 200 grams in size (Harlan Laboratories, Indianapolis, Ind.) were injected intraperitoneally at 20 mL/kg of body weight with sterile 7.5% thioglycollate solution (BD Biosciences) supplemented with 12.5% BSA aged for more than 6 months in the presence of 0.5 M D-glucose at 37° C. in the dark according to the procedure of Li et al. (Journal of Immunological Methods (1997) 201:183-188). Three days later these rats were humanely euthanized with CO2 asphyxiation and total peritoneal cells isolated by intraperitoneal lavage with 50 mL of sterile phosphate buffered saline (PBS) containing 0.5 mM EDTA. Red blood cells were lysed with a 5 minute incubation with 1×RBC lysis buffer (BioLegend, San Diego, Calif.). […] Cells were incubated for 2 hrs in 5% CO2. After two hours, floating cells/debris was removed and the adherent cells were washed once with drug free media. Normal growth media (10% FCS RPMI1640) was added to each plate of cells and then incubated for 1, 2 and 3 days in the tissue culture incubator. The adherent cells were harvested using an 8 minute trypsin digest to loosen the cells and then gently scraped off the plate. […] Live cells were counted and then washed once with cold PBS. […]

[2] = Plasma protein binding by ultrafiltration, human plasma; type: in vitro ADME; settings: 500 nM
Method: (§1) EC2319 and EC1669 plasma protein binding was evaluated by ultra filtration using VWR 30K MWCO modified PES filters. 250 μL of 500 nM EC2319 or EC1669 in K3EDTA plasma incubated at 37° C. was added to the upper filter vessel. 50 μL was immediately removed as the donor plasma sample and aliquoted into a clean 1.2 mL plate. […] An aliquot of […] plasma ultrafiltrate was then added to the 1.2 mL plate as the receiver sample. To each plasma sample, 50 μL of plasma ultrafiltrate was added, and each ultrafiltrate sample received 50 μL of plasma to mitigate matrix effects. N-Maleoyl-β-alanine, mannitol, and acetic acid were added at the end of each experiment to stabilize the samples prior to LC-MS/MS analysis.

[3] = Incubation with AIA rat macrophage cell lysates; type: in vitro ADME; settings: AIA rat macrophage lysate, pH 4.5, 37° C., 2 hours
Method: Prior to immunization with adjuvant, female Lewis rats were fed a folate-deficient diet (Harlan Teklad, Indianapolis, Ind.) for approximately 10 days to reduce serum folate competition from high-folate-containing regular rodent chow. The rats were then inoculated intradermally (at the base of tail) with 0.5 mg heat-killed M. butyricum (BD Diagnostic Systems, Franklin Lakes, N.J.) in 100 μL light mineral oil (Sigma-Aldrich, St Louis, Mo., USA). The rats were then allowed to develop arthritis scores between 3 and 4 as described in Lu et al. (Arthritis Research & Therapy 2011, 13:R56). After rats developed severe joint inflammation, AIA rat peritoneal cells were isolated, plated, and whole cell lysates were prepared as described above with the exception that the lysates were resuspended in 0.1 M sodium acetate buffer, pH 4.5, to make a concentration of cell lysates equivalent to 10 million cells/mL of 0.1 M sodium acetate buffer, pH 4.5.
To 100 μL AIA rat macrophage, RAW264.7 or THP-1 FRβ cell lysates (each containing 10 million cells/mL 0.1 M sodium acetate, Ph 4.5) was added 2 μL of a 50 μM solution of EC2319 or EC1669 (Endocyte, Inc.). The solutions were incubated at 37° C. in a heat block (VWR International, Radnor, Pa.) for 2 hours. The reaction was terminated by the addition of 5 µL of stabilizer solution and 100 μL of acetonitrile containing d5-aminopterin (Endocyte, Inc.). […]

[4] = Plasma protein binding by ultrafiltration, rat plasma; type: in vitro ADME; settings: 500 nM
Method: as §1

[5] = tested on: Rat adjuvant arthritis (AIA); test: Rat adjuvant arthritis (AIA) treatment studies; type: in vivo
Method: Female Lewis rats (175-200 g) were purchased from Harlan Sprague Dawley (Indianapolis, Ind.) and allowed to acclimate for 1 week. Generally, rats were fed a folate-deficient diet (Harlan Teklad) for 9-10 days prior to arthritis induction.
Rat adjuvant arthritis (AIA) was induced by intradermal inoculation (at the base of tail) of 0.45-0.46 mg of heat-killed Mycobacteria butyricum (BD Diagnostic Systems, Sparks, Md.) in 100 μL light mineral oil (Sigma). […] During the course of disease development, animals were weighed at least 3 times a week. Paw edema (degree of arthritis) were scored 3 times a week as follows: 0=no edema or arthritis; 1=swelling in one type of joint; 2=swelling in two types of joint; 3=swelling in three types of joint; 4=swelling of the entire paw. A total score for each rat is calculated by adding up the scores for each of the four paws, giving a maximum of 16 per animal.
On the first day of treatment, rats with desired arthritis scores were distributed evenly across the control and treatment groups (n=5). […] All compounds and conjugates were administered subcutaneously (s.c.) starting 9 days after arthritis induction with biweekly (BIW, Mondays and Thursdays) or once-a-week (QW, Mondays) dosing for two consecutive weeks. At the completion of each study (˜4 days after the last treatment), rats were euthanized by CO2 asphyxiation and processed for paw weight (cut at the hairline) and spleen weight.
The rat AIA model resembles many characteristics of human rheumatoid arthritis and it is very aggressive. […] The animals in the AIA control group were left untreated.

Row | SMILES | aminopterin release [1] | plasma protein binding [2] | aminopterin release [3] | plasma protein binding [4] | body weight ([5]; Study 2, 500 nmol/kg, BIW) | residual disease ([5]; Study 2, 500 nmol/kg, BIW) | anti-arthritic activity ([5]; Study 3, 500 nmol/kg, BIW) | body weight ([5]; Study 3, 500 nmol/kg, BIW) | alleviating AIA symptoms (arthritis score, paw weight, spleen weight) ([5]; Study 1, 1000 nmol/kg, QW, s.c., two consecutive weeks) | anti-arthritic activity with concurrent EC0923 (arthritis score, paw weight, spleen weight, body weight) ([5]; Study 2, 500 nmol/kg BIW plus 500-fold molar excess EC0923 (250 μmol/kg)) | reducing arthritis scores and paw weights ([5]; Study 2, 500 nmol/kg, BIW, s.c., two consecutive weeks) | decreasing arthritis score, paw weight, and spleen weight ([5]; Study 3, 500 nmol/kg, BIW, two consecutive weeks)
1 | N=c1[nH]c(N)nc2ncc(CNc3ccc(C(=O)N[C@@H](CCC(=O)NNC(=O)OCCSSC[C@@H](NC(=O)[C@H](CCC(=O)NC[C@H](O)[C@@H](O)[C@H](O)[C@H](O)CO)NC(=O)[C@@H](CCC(=O)O)NC(=O)[C@H](CCC(=O)NC[C@H](O)[C@@H](O)[C@H](O)[C@H](O)CO)NC(=O)[C@@H](CCC(=O)O)NC(=O)[C@H](CCC(=O)NC[C@H](O)[C@@H](O)[C@H](O)[C@H](O)CO)NC(=O)CC[C@H](NC(=O)c4ccc(NCc5cnc6nc(N)[nH]c(=O)c6n5)cc4)C(=O)O)C(=O)O)C(=O)O)cc3)nc12 [EC1669, reference compound] | greater from EC1669 than from EC2319 | high plasma protein binding | greater from EC1669 than from EC2319 | high plasma protein binding | maintained a healthier body weight than EC2285 | minimal residual diseases | significant anti-arthritic activity | maintained a good body weight |  |  |  | 
2 | COC(=O)[C@H](CSSC(C)(C)[C@H](NC(=O)[C@H](CCC(=O)NC[C@H](O)[C@@H](O)[C@H](O)[C@H](O)CO)NC(=O)[C@H](CCC(=O)O)NC(=O)[C@H](CCC(=O)NC[C@H](O)[C@@H](O)[C@H](O)[C@H](O)CO)NC(=O)[C@H](CCC(=O)O)NC(=O)[C@H](CCC(=O)NC[C@H](O)[C@@H](O)[C@H](O)[C@H](O)CO)NC(=O)CC[C@H](NC(=O)c1ccc(NCc2cnc3nc(N)[nH]c(=O)c3n2)cc1)C(=O)O)C(=O)O)NC(=O)CC[C@H](NC(=O)c1ccc(NCc2cnc3nc(N)nc(N)c3n2)cc1)C(=O)O [EC2319] | aminopterin release was observed | higher plasma protein binding than did EC1669 | aminopterin release was observed | higher plasma protein binding than did EC1669 | maintained a healthier body weight than EC2285 | minimal residual diseases | significant anti-arthritic activity | maintained a good body weight | as effective as EC1669, EC2285, and EC2318 | fully blocked by EC0923 | equally efficacious as EC1669 but significantly more active than EC2285 | as efficacious as EC1669
